Reference: patent US20260306496A1, “CDK2 INHIBITOR PYRAZOLOPYRIMIDINE COMPOUNDS” (ALEKSIA THERAPEUTICS, INC., priority 2023, published 2026)
Like-named read-outs stand apart in the source and are kept apart here.

Biological target: CDK2/CCNE1 (Homo sapiens, UniProt P24941)
Assay: CDK2 homogeneous time-resolved fluorescence (HTRF) assay
Assay type: biochemical
Conditions: 3 nM CDK2/CCNE1, 1 mM ATP, 50 nM ULight-eIF4E-binding protein 1 (Thr37/46) peptide, 60 min at 23° C.
Experimental: A CDK homogeneous time-resolved fluorescence (HTRF) assay was used to assess the potency of the compounds described herein.
To an untreated 384-well microtiter plate (ProxiPlate) was added 100 nL 100× test compound in DMSO and 5 μL 2×CDK enzyme in assay buffer (50 mM HEPES, 1 mM EGTA, 10 mM MgCl2, 0.01% Tween 20, 2 mM DTT). The plate was centrifuged at 800 RPM for 1 min then incubated for 20 min at 23° C. 2.5 μL per well of 4×ATP and 2.5 μL 4×ULight™-eIF4E-binding protein 1 (Thr37/46) Peptide) substrate were added to all wells. After addition, the plates were centrifuged at 800 RPM for 1 min. The plates were incubated at 23° C. for 60 min. 5 μL per well 3×EDTA solution were added to each well to stop the reaction. 2.5 μL 7×LANCE Ultra Europium-anti-phospho-eTF4E-binding protein 1 (Thr37/46 antibody) were added to each well and the plate was centrifuged for 1 min at 800 RPM. The plate was incubated for 60 min at 23° C. Fluorescence was read at 340 nm excitation and 665 nm emission on an EnVision 2105 fluorescence reader. The final concentrations of reagents in the activity assay were 3 nM CDK2/CCNE1, 1 mM ATP, 50 nM ULight™-eIF4E-binding protein 1 (Thr37/46) Peptide substrate, 1% DMSO, 10 mM EDTA, and 2 nM LANCE Ultra Europium-anti-phospho-eTF4E-binding protein 1 (Thr37/46).
Dose-response titrations were conducted by using an 11-point, three-fold serial dilution scheme typically starting at 1 μM. Signals were reported as fluorescence units at 665 nm or the ratio of fluorescence units at 665 nm/fluorescence units at 615 nm. Signals are referred to below as “Lance signals”.
Using this assay, the IC50 values of example compounds were determined.

[1] = read-out: CDK2/CCNE IC50 <25 nM
[2] = read-out: CDK2/CCNE IC50 >150 nM
[3] = column 25-150 nM, read-out: CDK2/CCNE IC50 25-150 nM

| IC50 [2] | IC50 [3] | Compound | other results |
| --- | --- | --- | --- |
|  |  | CS(=O)(=O)c1ccc(Nc2ncc3cnn([C@@H]4CCC[C@@H](O)C4)c3n2)cc1 [Compound 51, (1R,3R)-3-(6-((4-(methylsulfonyl)phenyl)amino)-1H-pyrazolo[3,4-d]pyrimidin-1-yl)cyclohexan-1-ol] | IC50 [1]: < 25 nM |
| > 150 nM |  | CS(=O)(=O)c1ccc(Nc2ncc3cnn(CCc4ccccc4)c3n2)cc1 [Compound 62, N-(4-(methylsulfonyl)phenyl)-1-phenethyl-1H-pyrazolo[3,4-d]pyrimidin-6-amine] |  |
| > 150 nM |  | C=CS(=O)(=O)c1ccc(Nc2ncc3cn[nH]c3n2)cc1 [Compound 9, N-(4-(vinylsulfonyl)phenyl)-1H-pyrazolo[3,4-d]pyrimidin-6-amine] |  |
| > 150 nM |  | CC(c1cccnn1)n1ncc2cnc(Nc3ccc(S(C)(=O)=O)cc3)nc21 (single isomer, unassigned) [Compound 77, N-(4-(methylsulfonyl)phenyl)-1-(1-(pyridazin-3-yl)ethyl)-1H-pyrazolo[3,4-d]pyrimidin-6-amine] |  |
|  | 25 to 150 nM | CS(=O)(=O)c1ccc(Nc2ncc3cnn(C4CCC5(CC4)COC5)c3n2)cc1 [Compound 41, N-(4-(methylsulfonyl)phenyl)-1-(2-oxaspiro[3.5]nonan-7-yl)-1H-pyrazolo[3,4-d]pyrimidin-6-amine] |  |
|  |  | CS(=O)(=O)c1ccc(Nc2ncc3cnn([C@@H]4CCC[C@@H](C#N)C4)c3n2)cc1 [Compound 46, (1R,3R)-3-(6-((4-(methylsulfonyl)phenyl)amino)-1H-pyrazolo[3,4-d]pyrimidin-1-yl)cyclohexane-1-carbonitrile] | IC50 [1]: < 25 nM |
|  | 25 to 150 nM | CS(=O)(=O)c1ccc(Nc2ncc3cnn(-c4ccc(C#N)cc4)c3n2)cc1 (single isomer, unassigned) [Compound 68, 4-(6-((4-(methylsulfonyl)phenyl)amino)-1H-pyrazolo[3,4-d]pyrimidin-1-yl)benzonitrile] |  |
|  | 25 to 150 nM | CS(=O)(=O)c1ccc(Nc2ncc3cnn(C4CCOCC4)c3n2)cc1 [Compound 3, N-(4-(methylsulfonyl)phenyl)-1-(tetrahydro-2H-pyran-4-yl)-1H-pyrazolo[3,4-d]pyrimidin-6-amine] |  |
|  |  | CS(=O)(=O)N1CCC(Nc2ncc3cnn(CC4CCCCC4)c3n2)CC1 [Compound 2, 1-(cyclohexylmethyl)-N-(1-(methylsulfonyl)piperidin-4-yl)-1H-pyrazolo[3,4-d]pyrimidin-6-amine] | IC50 [1]: < 25 nM |
|  | 25 to 150 nM | C=CS(=O)(=O)c1ncc(Nc2ncc3cnn(CC4CCCCC4)c3n2)cn1 [Compound 21, 1-(cyclohexylmethyl)-N-(2-(vinylsulfonyl)pyrimidin-5-yl)-1H-pyrazolo[3,4-d]pyrimidin-6-amine] |  |
|  |  | C=CS(=O)(=O)c1ccc(Nc2ncc3cnn(CC4CCCCC4)c3n2)cn1 [Compound 34, 1-(cyclohexylmethyl)-N-(6-(vinylsulfonyl)pyridin-3-yl)-1H-pyrazolo[3,4-d]pyrimidin-6-amine] | IC50 [1]: < 25 nM |
| > 150 nM |  | C=CS(=O)(=O)c1ccc(Nc2ncc3cnn(C)c3n2)cc1 [Compound 10, 1-methyl-N-(4-(vinylsulfonyl)phenyl)-1H-pyrazolo[3,4-d]pyrimidin-6-amine] |  |
| > 150 nM |  | Cc1nn(CC2CCCCC2)c2nc(Nc3ccc(S(C)(=O)=O)cc3)ncc12 [Compound 19, 1-(cyclohexylmethyl)-3-methyl-N-(4-(methylsulfonyl)phenyl)-1H-pyrazolo[3,4-d]pyrimidin-6-amine] |  |
|  | 25 to 150 nM | C=C(C)S(=O)(=O)c1ccc(Nc2ncc3cnn(CC4CCCCC4)c3n2)cc1 [Compound 30, 1-(cyclohexylmethyl)-N-(4-(prop-1-en-2-ylsulfonyl)phenyl)-1H-pyrazolo[3,4-d]pyrimidin-6-amine] |  |
| > 150 nM |  | CS(=O)(=O)c1ccc(Nc2ncc3cnn(CC4CCC(N5CC[C@@H](C#N)C5)CC4)c3n2)cc1 (single isomer, unassigned; stereoisomer a) [Compound 71] |  |
|  | 25 to 150 nM | C=CS(=O)(=O)c1c(F)cc(Nc2ncc3cnn(CC4CCCCC4)c3n2)cc1F [Compound 37, 1-(cyclohexylmethyl)-N-(3,5-difluoro-4-(vinylsulfonyl)phenyl)-1H-pyrazolo[3,4-d]pyrimidin-6-amine] |  |
